Where two headings read alike, the source gives them in different places.
Legend:
[1] = molecular target: T1, human recombinant HDAC1 (Homo sapiens, UniProt Q13547); assay: HDAC1 enzyme activity inhibition (HDAC Fluorimetric Drug Discovery Kit); type: biochemical; details: read-out: HDAC1
T1 construct: purchased Enzo Life Science, Inc. BML-SE456
Procedure, shortened: (§1)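 Compounds in 5-fold dilution series were incubated with […] enzyme and 10 μM substrate at 30° C for 60 minutes. Fluor de Lys Developer II was then added for 30 minutes to stop the reaction and develop the fluorescent signal.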

[2] = molecular target: T2, human recombinant HDAC6 (Homo sapiens, UniProt Q9UBN7); assay: HDAC6 enzyme activity inhibition (HDAC Fluorimetric Drug Discovery Kit); type: biochemical
T2 construct: purchased Calbiochem Inc. 382180
T2 sequence (Q9UBN7 1-1215): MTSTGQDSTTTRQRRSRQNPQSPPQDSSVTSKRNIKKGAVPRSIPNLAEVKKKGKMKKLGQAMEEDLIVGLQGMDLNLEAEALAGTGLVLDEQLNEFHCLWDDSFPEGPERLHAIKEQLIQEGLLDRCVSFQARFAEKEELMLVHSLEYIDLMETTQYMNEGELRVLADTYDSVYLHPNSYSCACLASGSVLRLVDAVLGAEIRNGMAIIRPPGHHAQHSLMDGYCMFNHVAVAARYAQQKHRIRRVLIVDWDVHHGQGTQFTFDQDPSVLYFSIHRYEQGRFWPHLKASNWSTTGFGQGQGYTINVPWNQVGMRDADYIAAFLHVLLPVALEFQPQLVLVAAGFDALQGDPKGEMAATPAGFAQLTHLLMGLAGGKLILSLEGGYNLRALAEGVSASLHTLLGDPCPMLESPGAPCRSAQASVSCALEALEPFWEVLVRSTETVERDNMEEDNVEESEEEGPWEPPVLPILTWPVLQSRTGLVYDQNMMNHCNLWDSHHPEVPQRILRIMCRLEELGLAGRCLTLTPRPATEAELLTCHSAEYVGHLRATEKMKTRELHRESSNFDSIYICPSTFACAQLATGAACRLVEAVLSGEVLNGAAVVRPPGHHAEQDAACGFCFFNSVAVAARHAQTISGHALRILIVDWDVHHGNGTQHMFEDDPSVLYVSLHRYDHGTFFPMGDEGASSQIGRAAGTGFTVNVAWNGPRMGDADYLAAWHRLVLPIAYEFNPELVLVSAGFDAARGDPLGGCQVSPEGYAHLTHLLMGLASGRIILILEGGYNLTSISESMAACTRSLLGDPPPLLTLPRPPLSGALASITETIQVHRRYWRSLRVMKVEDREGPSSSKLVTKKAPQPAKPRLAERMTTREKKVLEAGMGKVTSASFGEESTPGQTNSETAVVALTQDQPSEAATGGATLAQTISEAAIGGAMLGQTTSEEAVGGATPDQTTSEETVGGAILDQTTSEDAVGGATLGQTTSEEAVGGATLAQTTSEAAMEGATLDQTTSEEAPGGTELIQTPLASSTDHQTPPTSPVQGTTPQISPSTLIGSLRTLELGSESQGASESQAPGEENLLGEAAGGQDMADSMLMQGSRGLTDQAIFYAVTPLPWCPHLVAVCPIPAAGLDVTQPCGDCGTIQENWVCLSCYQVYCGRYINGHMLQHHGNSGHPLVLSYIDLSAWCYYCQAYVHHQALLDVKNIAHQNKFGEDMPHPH
Procedure, shortened: as §1

[3] = human recombinant HDAC1, Fluor de Lys substrate, 30° C. 60 minutes
[4] = human recombinant HDAC6, same protocol as HDAC1
[5] = human recombinant HDAC1, IC50 calculated with GraphPad Prism
[6] = human recombinant HDAC6, IC50 calculated with GraphPad Prism

T1 sequence (Q13547 whole entry): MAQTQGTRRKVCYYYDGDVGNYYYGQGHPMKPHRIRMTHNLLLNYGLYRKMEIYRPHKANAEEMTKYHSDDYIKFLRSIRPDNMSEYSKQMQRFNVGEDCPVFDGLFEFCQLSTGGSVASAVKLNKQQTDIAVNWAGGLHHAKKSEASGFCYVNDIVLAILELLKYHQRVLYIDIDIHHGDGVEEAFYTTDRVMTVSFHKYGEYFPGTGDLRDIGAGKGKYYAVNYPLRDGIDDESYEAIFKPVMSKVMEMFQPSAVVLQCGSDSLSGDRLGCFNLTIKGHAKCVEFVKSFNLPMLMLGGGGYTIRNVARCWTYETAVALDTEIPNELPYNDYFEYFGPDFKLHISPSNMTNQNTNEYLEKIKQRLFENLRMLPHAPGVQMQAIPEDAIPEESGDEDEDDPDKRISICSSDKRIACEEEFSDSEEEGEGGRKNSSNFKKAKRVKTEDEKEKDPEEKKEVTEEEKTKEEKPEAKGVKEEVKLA

Row | Structure (SMILES) | IC50 [1, 3] [nM] | HDAC6 selectivity (fold) ([2]; HDAC6 over HDAC1) | IC50 [2, 4] [nM] | IC50 [1, 5] [nM] | HDAC6 selectivity (fold) ([2]; HDAC1 IC50 / HDAC6 IC50) | IC50 [2, 6] [nM]
1 | Fc1cc(-c2nnc(C(F)F)o2)ccc1Cn1cc(-c2ccc3c(c2)CN(C2COC2)C3)nn1 [Compound 4519, 2-(difluoromethyl)-5-(3-fluoro-4-((4-(2-(oxetan-3-yl)isoindolin-5-yl)-1H-1,2,3-triazol-1-yl)methyl)phenyl)-1,3,4-oxadiazole] | > 50000 | 994 | 50.3 |  |  | 
2 | FC(F)c1nnc(-c2ccc(Cn3cc(-c4ccc(CN5CCC5)cc4)nn3)nc2)o1 [Compound 4558, 2-(6-((4-(4-(azetidin-1-ylmethyl)phenyl)-1H-1,2,3-triazol-1-yl)methyl)pyridin-3-yl)-5-(difluoromethyl)-1,3,4-oxadiazole] | > 50000 | 5882 | 8.5 |  |  | 
3 | O=C(O)c1cccc(-c2cn(Cc3ccc(-c4nnc(C(F)F)o4)cc3)nn2)c1 [Compound 3659, 3-(1-(4-(5-(difluoromethyl)-1,3,4-oxadiazol-2-yl)benzyl)-1H-1,2,3-triazol-4-yl)benzoic acid] |  |  |  | > 50000 | 122 | 409
4 | FC(F)c1nnc(-c2ccc(Cn3cc(-c4ccccc4)nn3)cc2)o1 [Compound 3657, 2-(difluoromethyl)-5-(4-((4-phenyl-1H-1,2,3-triazol-1-yl)methyl)phenyl)-1,3,4-oxadiazole] |  |  |  | > 50000 | 527 | 94.8
5 | FC1CN(Cc2cccc(-c3cn(Cc4ccc(-c5nnc(C(F)F)o5)cc4)nn3)c2)C1 [Compound 4410, 2-(difluoromethyl)-5-(4-((4-(3-((3-fluoroazetidin-1-yl)methyl)phenyl)-1H-1,2,3-triazol-1-yl)methyl)phenyl)-1,3,4-oxadiazole] |  |  |  | > 50000 | 781 | 64
6 | CCN1CCC(c2cn(Cc3ccc(-c4nnc(C(F)F)o4)cn3)nn2)CC1 [Compound 3807, 2-(difluoromethyl)-5-(6-((4-(1-ethylpiperidin-4-yl)-1H-1,2,3-triazol-1-yl)methyl)pyridin-3-yl)-1,3,4-oxadiazole] |  |  |  | > 50000 | 166 | 301
7 | CC(C)(C)OC(=O)N1CCC(c2cn(Cc3ccc(-c4nnc(C(F)F)o4)cc3F)nn2)C1 (stereo not drawn) [Compound 3734, Tert-butyl 3-(1-(4-(5-(difluoromethyl)-1,3,4-oxadiazol-2-yl)-2-fluorobenzyl)-1H-1,2,3-triazol-4-yl)pyrrolidin-1-carboxylate] |  |  |  | > 50000 | 500 | 244
8 | CN1CCN(c2cc(-c3cn(Cc4ccc(-c5nnc(C(F)F)o5)cc4F)nn3)ccc2F)CC1 [Compound 4424, 2-(difluoromethyl)-5-(3-fluoro-4-((4-(4-fluoro-3-(4-methylpiperazin-1-yl)phenyl)-1H-1,2,3-triazol-1-yl)methyl)phenyl)-1,3,4-oxadiazol] |  |  |  | > 50000 | 559 | 89.4
9 | CC(C)N1CCN(c2cccc(-c3cn(Cc4ncc(-c5nnc(C(F)F)o5)cc4F)nn3)c2)CC1 [Compound 18926] | > 50000 | 782 | 63.9 |  |  | 
10 | Fc1cc(-c2nnc(C(F)F)o2)ccc1Cn1cc(-c2ccc(CN3CC[C@@H](F)C3)nc2)nn1 [Compound 17774, (R)-2-(difluoromethyl)-5-(3-fluoro-4-((4-(6-((3-fluoropyrrolidin-1-yl)methyl)pyridin-3-yl)-1H-1,2,3-triazol-1-yl)methyl)phenyl)-1,3,4-oxadiazole] | > 50000 | 897 | 55.7 |  |  | 
11 | CC(C)(C)OC(=O)N1CCC(c2cn(Cc3ccc(-c4nnc(C(F)F)o4)cc3F)nn2)CC1 [Compound 3735, Tert-butyl 4-(1-(4-(5-(difluoromethyl)-1,3,4-oxadiazol-2-yl)-2-fluorobenzyl)-1H-1,2,3-triazol-4-yl)piperidin-1-carboxylate] |  |  |  | > 50000 | 320 | 156
12 | CCOC(=O)N(C)c1cccc(-c2cn(Cc3ccc(-c4nnc(C(F)F)o4)cn3)nn2)c1 [Compound 3890] |  |  |  | > 50000 | 1319 | 37.9
13 | CCN1CCc2ccc(-c3cn(Cc4ccc(-c5nnc(C(F)F)o5)cc4F)nn3)cc2C1 [Compound 4364, 2-(difluoromethyl)-5-(4-((4-(2-ethyl-1,2,3,4-tetrahydroisoquinolin-7-yl)-1H-1,2,3-triazol-1-yl)methyl)-3-fluorophenyl)-1,3,4-oxadiazole] |  |  |  | > 50000 | 1160 | 43.1
14 | CC(=O)N1CCC(c2cn(Cc3ccc(-c4nnc(C(F)F)o4)cn3)nn2)CC1 [Compound 3811, 1-(4-(1-((5-(5-(difluoromethyl)-1,3,4-oxadiazol-2-yl)pyridin-2-yl)methyl)-1H-1,2,3-triazol-4-yl)piperidin-1-yl)ethan-1-one] |  |  |  | > 50000 | 241 | 207
15 | FC(F)c1nnc(-c2ccc(Cn3cc(-c4ccc5[nH]ncc5c4)nn3)nc2)o1 [Compound 4343, 2-(6-((4-(1H-indazol-5-yl)-1H-1,2,3-triazol-1-yl)methyl)pyridin-3-yl)-5-(difluoromethyl)-1,3,4-oxadiazole] |  |  |  | > 50000 | 5882 | 8.5
16 | FC(F)c1nnc(-c2ccc(Cn3cc(-c4ccc(-n5cncn5)cc4)nn3)nc2)o1 [Compound 4285, 2-(6-((4-(4-(1H-1,2,4-triazol-1-yl)phenyl)-1H-1,2,3-triazol-1-yl)methyl)pyridin-3-yl)-5-(difluoromethyl)-1,3,4-oxadiazole] |  |  |  | > 50000 | 1577 | 31.7
17 | Fc1cc(-c2nnc(C(F)F)o2)cnc1Cn1cc(-c2ccc(CN3CCCC3)s2)nn1 [Compound 18059, 2-(difluoromethyl)-5-(5-fluoro-6-((4-(5-(pyrrolidin-1-ylmethyl)thiophen-2-yl)-1H-1,2,3-triazol-1-yl)methyl)pyridin-3-yl)-1,3,4-oxadiazole] | > 50000 | 1295 | 38.6 |  |  | 
18 | Fc1ccc(-c2cn(Cc3ccc(-c4nnc(C(F)F)o4)cc3)nn2)cc1N1CCNCC1 [Compound 4396, 2-(difluoromethyl)-5-(4-((4-(4-fluoro-3-(piperazin-1-yl)phenyl)-1H-1,2,3-triazol-1-yl)methyl)phenyl)-1,3,4-oxadiazole] |  |  |  | > 50000 | 619 | 80.7
19 | FC(F)c1nnc(-c2ccc(Cn3cc(-c4cc(C(F)(F)F)cc(C(F)(F)F)c4)nn3)cc2)o1 [Compound 3695, 2-(4-((4-(3,5-bis(trifluoromethyl)phenyl)-1H-1,2,3-triazol-1-yl)methyl)phenyl)-5-(difluoromethyl)-1,3,4-oxadiazole] |  |  |  | > 50000 | 42 | 1190
20 | Fc1cc(-c2nnc(C(F)F)o2)ccc1Cn1cc(-c2cncc(-c3cn[nH]c3)c2)nn1 [Compound 17058, 2-(4-((4-(5-(1H-pyrazol-4-yl)pyridin-3-yl)-1H-1,2,3-triazol-1-yl)methyl)-3-fluorophenyl)-5-(difluoromethyl)-1,3,4-oxadiazole] | > 50000 | 2777 | 18 |  |  | 
21 | Fc1ccc(N2CCN(C3CCC3)CC2)cc1-c1cn(Cc2ccc(-c3nnc(C(F)F)o3)cc2)nn1 [Compound 4454, 2-(4-((4-(5-(4-cyclobutylpiperazin-1-yl)-2-fluorophenyl)-1H-1,2,3-triazol-1-yl)methyl)phenyl)-5-(difluoromethyl)-1,3,4-oxadiazol] |  |  |  | > 50000 | 632 | 79.1
